Laboratory results: patent US10799501B2, “Combination of an inhibitor of PARP with an inhibitor of GSK-3 or DOT1L” (King's College London, priority 2015, dated 2020)

Assays:
MLL pre-LSC = assay: Colony formation of MLL pre-LSC with PARPi, LiCl or combination; format: cell-based, mouse; conditions: seven days; 8 mM LiCl, 1 μM Olaparib
Method: Colonies were scored 6-7 days after plating. For other in vitro studies, mouse leukemic cells and primary AML cell lines were subjected to continuously Olaparib (1 μM) or LiCl (8 mM) treatment in liquid culture for whole duration as indicated in the figures or figure legends. For human leukemic cell lines, experiments were performed as described above with 5 μM Olaparib. 1×10^5 cells were cytospun for 5 min at 300 g onto glass slides. Slides were then stained with May-Grunwald solution (Sigma-Aldrich) for 3 min at room temperature. After washing in water, they were incubated for 20 min in Giemsa solution (Sigma-Aldrich) (1:20 in water). Slides were washed again in water before being mounted with Mowiol. Cells were counted in at least 5 fields for each slide, for a total of over 100 cells per condition. NBT reduction assay were performed to determine myeloid differentiation. 0.1% of NBT (final concentration) was added to the liquid culture or semi-solid methocult and incubated at 37° C. CO2 incubator for 3 hrs and 12 hrs, respectively. Cells were then washed in PBS and the differentiated cells were indicated by the deposition of dark blue insoluble formazan (NBT positive cells) and the percentage of differentiated cells were counted under microscopy. At least 200 cells were counted in most of the cases.

[1] = system: AML1-ETO primary human leukemia cells; assay: In vitro treatment of primary AML patient cells carrying AML1-ETO; format: cell-based
Method: NB4-LR2 and THP1 cell lines (kindly provided by Dr Arthur Zelent and Professor Mel Greaves respectively) were cultured in RPMI (Invitrogen) supplemented with 10% selected FBS (R10), 2 mM L-Glutamine. Kasumi cell line (kindly provided by Dr Olaf Heidenreich) was cultured in RPMI-Hepes modified (Sigma) supplemented with 20% selected FBS and 2 mM L-[…]). Cell lines were validated by qPCR for their respective oncogenes. NIH3T3 and GP2 cell line was cultured in DMEM (Invitrogen) supplemented with 10% selected FBS and 2 mM L-Glutamine. Human primary AML cells were cultured in IMEM (Invitrogen) supplemented with […], 2 mM L-Glutamine, 10 ng/mL each of human cytokines, IL3, IL6, SCF, FLT3 ligand, and TPO. Cells were kept at 37° C. and 5% CO2. Use of human primary cells was approved by King's College London committee and consents of the patients were obtained. […] Colonies were scored 6-7 days after plating. […] Cells were counted in at least 5 fields for each slide, for a total of over 100 cells per condition. […] Cells were then washed in PBS and the differentiated cells were indicated by the deposition of dark blue insoluble formazan (NBT positive cells) and the percentage of differentiated cells were counted under microscopy. At least 200 cells were counted in most of the cases.

ovarian cancer = conditions: untargeted population; cited from earlier work
MLL-AF9 LSC = assay: C57Bl6 mice transplanted with pretreated MLL-AF9 LSC, PARPi and GSK3i treatment; format: in vivo, mouse
Method: For mouse MLL-AF9 LSC in vivo studies involving PARPi and GSK3i, MLL-AF9 LSC were pretreated in R20/20 with 4 mM LiCl or 1 uM Olaparib or combination for 3 days. Equal number 0.2×10^6 of live cells were transplanted into sublethally irradiated C57Bl6 mice. Continuous Olaparib and LiCO3 treatment was commenced on the day after irradiation and injection of cells. Mice were given 0.4% lithium carbonate containing diet (Harlan Laboratory) along with Olaparib by IP every other day for 4 weeks. The engraftment of mouse donor cells was defined as CD45.1+/CD45.2− by FACS.

[2] = C57Bl6 mice, MLL-AF9 wild-type leukemia, cells pre-treated 3 days, then in vivo treatment 4 weeks

Compound: O=C(c1cc(Cc2n[nH]c(=O)c3ccccc23)ccc1F)N1CCN(C(=O)C2CC2)CC1 [Olaparib, 4-[(3-[(4-cyclopropylcarbonyl)piperazin-4-yl]carbonyl)-4-fluorophenyl]methyl(2H)-phthalazin-1-one]
- colony forming ability / growth inhibition (MLL pre-LSC): non-effective
- differentiation of primary AML cells ([1]; 1 μM Olaparib for 5 days): increased differentiation
- in vitro PARPi response (sensitivity) ([1]; primary patient cells treated 5 days): highly sensitive
- overall survival benefit compared to chemotherapy (ovarian cancer): failed to show overall survival benefit
- BM Engraftment (%) (MLL-AF9 LSC; [2]): 80.23 ± 23.70%
- Disease Latency (days; median) (MLL-AF9 LSC; [2]): 45.8 days
- Hematopoietic Liver Engraftment (%) (MLL-AF9 LSC; [2]): 76.5 ± 19.21%
- Hematopoietic Spleen Engraftment (%) (MLL-AF9 LSC; [2]): 65.07 ± 43.46%
- Liver (MLL-AF9 LSC; [2]): 2.868 ± 0.4089 g
- Spleen (MLL-AF9 LSC; [2]): 1.218 ± 0.3266 g
- survival (MLL-AF9 LSC; pretreated MLL LSC in syngeneic mice, 80 days of observation, controls succumbed within 8 weeks): did not significantly extend the survival
